According to ChEMBL document CHEMBL1142005, “Utilization of a nitrobenzoxadiazole (NBD) fluorophore in the design of a Grb2 SH2 domain-binding peptide mimetic” (Bioorg Med Chem Lett, 2005):

What was measured:
[1] = target: T1, Growth factor receptor-bound protein 2 (Homo sapiens, UniProt P62993); experiment: First order rate constant (koff) for human growth factor receptor bound protein 2
Target sequence in this assay (P62993 whole entry, looked up): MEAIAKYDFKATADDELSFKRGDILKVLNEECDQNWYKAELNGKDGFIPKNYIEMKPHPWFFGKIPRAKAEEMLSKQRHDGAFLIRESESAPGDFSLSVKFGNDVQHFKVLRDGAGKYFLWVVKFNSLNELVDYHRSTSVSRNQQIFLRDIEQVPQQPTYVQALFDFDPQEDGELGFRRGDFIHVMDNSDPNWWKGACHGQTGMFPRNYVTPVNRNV

[2] = target: T1, Growth factor receptor-bound protein 2; experiment: Apparent dissociation constant for human growth factor receptor bound protein 2
Target sequence in this assay (P62993 whole entry): as the sequence (P62993 whole entry, looked up) above

[3] = target: T1, Growth factor receptor-bound protein 2; experiment: First order rate constant (kon) for human growth factor receptor bound protein 2
Target sequence in this assay (P62993 whole entry, looked up): as above

[4] = target: T1, Growth factor receptor-bound protein 2; experiment: Inhibitory concentration for human growth factor receptor bound protein 2
Target sequence in this assay (P62993 whole entry): as the sequence (P62993 whole entry, looked up) above

NC(=O)C[C@H](NC(=O)C1(NC(=O)[C@@H](CC(=O)O)Cc2ccc(CP(=O)(O)O)cc2)CCCCC1)C(=O)NCCCc1cccc2ccccc12
k off [1]: 0.0991 s⁻¹
Kd [2]: 23.8 nM
kon [3]: 4.18e+06 1/M1/S

NC(=O)C[C@H](NC(=O)C1(NC(=O)[C@@H](CC(=O)O)Cc2ccc(CP(=O)(O)O)cc2)CCCCC1)C(=O)NCCNc1ccc([N+](=O)[O-])c2nonc12
k off [1]: 0.14 s⁻¹
Kd [2]: 119 nM
kon [3]: 1.18e+06 1/M1/S
IC50 [4]: 167 nM
